Experiments:
Assay type in all cases: in vivo
Venturia inaequalis [1] = assay: Example 4 field trials, apple (Malus domestica var. Golden delicious) infected with scab; conditions: 250 g a.c./ha
Sphaerotheca fuliginea = assay: Example 8 field trial, cucumber (Cucumis sativus) infected with powdery mildew, Spain; conditions: 7 DA-A3, BBCH 63, 500 g a.c./ha
Venturia inaequalis [2] = assay: Example 15 field trial, apple (Malus domestica var. Gala) infected with apple scab, France; conditions: PESINC, 200 leaves, 1200 g a.c./ha
Podosphaera leucotricha = assay: Example 14 field trials, apple (Malus domestica var. Gold Rush, var. Morgenduft Dallago) infected with powdery mildew; conditions: 840 g a.c./ha
Peronospora cumensis = assay: Example 2 field trial, cucumber (Cucumis sativus) infected with downy mildew, France; conditions: PESSEV, 150 g a.c./ha
Plasmopara viticola = assay: Example 1 field trial, Vitis vinifera var. Chardonnay infected with downy mildew, South Africa; conditions: 120 g a.c./ha

## N#Cc1sc2c(=O)c3ccccc3c(=O)c=2sc1C#N [DIT, 5,10-dioxobenzo[g][1,4]benzodithiine-2,3-dicarbonitrile]
Venturia inaequalis [1]; PESINC, location 1 (France), 1 DA-A6, BBCH 74
  DIT f.e. (%): 19.8%
Venturia inaequalis [1]; PESINC, location 1 (France), 6 DA-A4, BBCH 72
  DIT f.e. (%): 38.6%
Venturia inaequalis [1]; PESINC, location 2 (United Kingdom), 5 DA-A8, BBCH 74
  DIT f.e. (%): 59.0%
Venturia inaequalis [1]; PESINC, location 3 (Belgium), 31 DA-A9, BBCH 73
  DIT f.e. (%): 51.8%
Venturia inaequalis [1]; PESINC, location 3 (Belgium), 80 DA-A9, BBCH 73
  DIT f.e. (%): 42.6%
Venturia inaequalis [1]; PESSEV, location 1 (France), 1 DA-A6, BBCH 74
  DIT f.e. (%): 63.0%
Venturia inaequalis [1]; PESSEV, location 1 (France), 6 DA-A4, BBCH 72
  DIT f.e. (%): 75.4%

## OCC1(O)OC[C@@H](O)[C@H](O)[C@@H]1O (stereo partly drawn) [TAG, (3S,4S,5R)-2-(hydroxymethyl)oxane-2,3,4,5-tetrol]
Sphaerotheca fuliginea; PESINC
  TAG f.e. (%): 83.9%
Sphaerotheca fuliginea; PESSEV
  TAG f.e. (%): 93.2%
Venturia inaequalis [2]; 28 DA-A12, BBCH 73
  TAG f.e. (%): 28.1%
Venturia inaequalis [2]; 56 DA-A12, BBCH 75
  TAG f.e. (%): 28.0%
Podosphaera leucotricha; PESINC, location 1 (France), 20 shoots, 7 DA-A5, BBCH 71
  TAG f.e. (%): 26.7%
Podosphaera leucotricha; PESINC, location 1 (France), 100 leaves, 5 DA-A8, BBCH 74
  TAG f.e. (%): 18.8%
Podosphaera leucotricha; PESINC, location 1 (France), 100 leaves, 6 DA-A6, BBCH 74
  TAG f.e. (%): 14.5%
Podosphaera leucotricha; PESINC, location 1 (France), 100 leaves, 15 DA-A8, BBCH 76
  TAG f.e. (%): 8.7%
Podosphaera leucotricha; PESINC, location 1, 20 shoots, 7 DA-A5, BBCH 71, second listing (r40)
  TAG f.e. (%): 0.6%
Podosphaera leucotricha; PESINC, location 1, 100 leaves, 5 DA-A8, BBCH 74, second listing (r52)
  TAG f.e. (%): 2.4%
Podosphaera leucotricha; PESINC, location 1, 100 leaves, 6 DA-A6, BBCH 74, second listing (r46)
  TAG f.e. (%): 36.4%
Podosphaera leucotricha; PESINC, location 1, 100 leaves, 15 DA-A8, BBCH 76, second listing (r58)
  TAG f.e. (%): 5.9%
Podosphaera leucotricha; PESSEV, location 1 (France), 100 leaves, 5 DA-A8, BBCH 74
  TAG f.e. (%): 38.4%
Podosphaera leucotricha; PESSEV, location 1 (France), 100 leaves, 6 DA-A6, BBCH 74
  TAG f.e. (%): 15.6%
Podosphaera leucotricha; PESSEV, location 1 (France), 100 leaves, 15 DA-A8, BBCH 76
  TAG f.e. (%): 2.6%
Podosphaera leucotricha; PESSEV, location 1, 100 leaves, 5 DA-A8, BBCH 74, second listing (r49)
  TAG f.e. (%): 1.6%
Podosphaera leucotricha; PESSEV, location 1, 100 leaves, 6 DA-A6, BBCH 74, second listing (r43)
  TAG f.e. (%): 44.9%
Podosphaera leucotricha; PESSEV, location 1, 100 leaves, 15 DA-A8, BBCH 76, second listing (r55)
  TAG f.e. (%): 3.5%

## COC(=O)CC(NC(=O)[C@@H](NC(=O)OC(C)C)C(C)C)c1ccc(Cl)cc1 (stereo partly drawn) [VAL, methyl 3-(4-chlorophenyl)-3-[[(2S)-3-methyl-2-(propan-2-yloxycarbonylamino)butanoyl]amino]propanoate]
Peronospora cumensis; 6 DA-A2, BBCH 19
  VAL f.e. (%): 31.7%
Peronospora cumensis; 7 DA-A1, BBCH 16
  VAL f.e. (%): 43.6%
Peronospora cumensis; 7 DA-A4, BBCH 19
  VAL f.e. (%): 62.1%
Peronospora cumensis; 8 DA-A3, BBCH 19
  VAL f.e. (%): 31.7%
Peronospora cumensis; 14 DA-A4, BBCH 19
  VAL f.e. (%): 27.0%
Plasmopara viticola; PESINC, 50 bunches, 14 DA-A3, BBCH 77
  VAL f.e. (%): 64.0%
Plasmopara viticola; PESINC, 50 bunches, 14 DA-A5, BBCH 83
  VAL f.e. (%): 53.6%
Plasmopara viticola; PESINC, 100 leaves, 14 DA-A3, BBCH 77
  VAL f.e. (%): 57.6%
Plasmopara viticola; PESSEV, 50 bunches, 14 DA-A3, BBCH 77
  VAL f.e. (%): 75.9%
Plasmopara viticola; PESSEV, 50 bunches, 14 DA-A5, BBCH 83
  VAL f.e. (%): 73.3%
Plasmopara viticola; PESSEV, 100 leaves, 14 DA-A3, BBCH 77
  VAL f.e. (%): 66.9%

Reference: patent US12490739B2, “Synergistically effective fungicide composition comprising choline phosphonate and at least one additional fungicide” (BELCHIM CROP PROTECTION NV, priority 2019, dated 2025)
